Read-outs that look alike come from different tables or passages of the source.
Key:
MERS-S pseudovirus = assay: organism not typed; assay type: cell-based, MERS-CoV; details: for IC50: read-out: IC50: 50% inhibitory concentration
in vitro = details: human

Compound	IC50 (MERS-S pseudovirus; Huh-7, 48 h) [µM]	CC50 (in vitro) [µM]	also measured
COc1cccc(/C=N/c2ccc(-c3nc4ccccc4s3)cc2)c1O [Compound 1a, (E)-2-(((4-(Benzo[d]thiazol-2-yl)phenyl)imino)methyl)-6-methoxyphenol]			inhibitory activity against MERS-S pseudovirus (in words) (MERS-S pseudovirus): modest entry inhibitor; IC50 (MERS-S pseudovirus): 0.73 ± 0.66 µM
COc1cccc(/C=N/c2ccc(-c3nc4ccccc4o3)cc2)c1O [Compound 1b, (E)-2-(((4-(Benzo[d]oxazol-2-yl)phenyl)imino)methyl)-6-methoxyphenol]	> 10		inhibitory activity against MERS-S pseudovirus (in words) (MERS-S pseudovirus): lost inhibitory activity
COc1cccc(/C=N/c2ccc(-c3nc4ccccc4[nH]3)cc2)c1O [Compound 1c, (E)-2-(((4-(1H-Benzo[d]imidazol-2-yl)phenyl)imino)methyl)-6-methoxyphenol]	> 10		inhibitory activity against MERS-S pseudovirus (in words) (MERS-S pseudovirus): lost inhibitory activity
COc1cccc(/C=N/c2ccc(-c3nc4ccccc4s3)nc2)c1O [Compound 1d, (E)-2-(((6-(Benzo[d]thiazol-2-yl)pyridin-3-yl)imino)methyl)-6-methoxyphenol]	2.7 ± 0.19		inhibitory activity against MERS-S pseudovirus (in words) (MERS-S pseudovirus): Modest inhibitory activity
COc1cccc(/C=N/c2nc3ccccc3s2)c1O [Compound 1e, (E)-2-((benzo[d]thiazol-2-ylimino)methyl)-6-methoxyphenol]	> 10		inhibitory activity against MERS-S pseudovirus (in words) (MERS-S pseudovirus): lost inhibitory activity
COc1cccc(CNc2ccc(-c3nc4ccccc4s3)cc2)c1O [Compound 1f, 2-(((4-(benzo[d]thiazol-2-yl)phenyl)amino)methyl)-6-methoxy-phenol]	> 10		inhibitory activity against MERS-S pseudovirus (in words) (MERS-S pseudovirus): inhibitory activity was markedly reduced
COc1cccc(C(=O)Nc2ccc(-c3nc4ccccc4s3)cc2)c1O [Compound 1g, N-(4-(benzo[d]thiazol-2-yl)phenyl)-2-hydroxy-3-methoxybenzamide]	> 10		inhibitory activity against MERS-S pseudovirus (in words) (MERS-S pseudovirus): inhibitory activity was markedly reduced
C(=N\c1ccc(-c2nc3ccccc3s2)cc1)/c1ccccc1 [Compound 1h, (E)-N-(4-(Benzo[d]thiazol-2-yl)phenyl)-1-phenylmethanimine]	0.57 ± 0.11	> 100	
Oc1ccccc1/C=N/c1ccc(-c2nc3ccccc3s2)cc1 [Compound 1i, (E)-2-(((4-(Benzo[d]thiazol-2-yl)phenyl)imino)methyl)phenol]	0.52 ± 0.03	> 100	
Oc1cccc(/C=N/c2ccc(-c3nc4ccccc4s3)cc2)c1O [Compound 1k, (E)-3-(((4-(Benzo[d]thiazol-2-yl)phenyl)imino)methyl)benzene-1,2-diol]	0.4 ± 0.01	> 100	
COc1ccc(/C=N/c2ccc(-c3nc4ccccc4s3)cc2)cc1O [Compound 1l, (E)-5-(((4-(Benzo[d]thiazol-2-yl)phenyl)imino)methyl)-2-methoxyphenol]	0.22 ± 0.03	> 100	
C(=N\c1ccc(-c2nc3ccccc3s2)cc1)/c1cccnc1 [Compound 1m, (E)-N-(4-(Benzo[d]thiazol-2-yl)phenyl)-1-(pyridin-3-yl)methanimine]	0.34 ± 0.24	> 100	
C(=N\c1ccc(-c2nc3ccccc3s2)cc1)/c1ccoc1 [Compound 1n, (E)-N-(4-(Benzo[d]thiazol-2-yl)phenyl)-1-(furan-3-yl)methanimine]	> 10	> 100	
C(=N\c1ccc(-c2nc3ccccc3s2)cc1)/c1ccsc1 [Compound 1o, (E)-N-(4-(Benzo[d]thiazol-2-yl)phenyl)-1-(thiophen-3-yl)methanimine]	0.14 ± 0.06	> 100	
C(=N\c1ccc(-c2nc3ccccc3s2)cc1)/c1cc[nH]c1 [Compound 1p, (E)-N-(4-(Benzo[d]thiazol-2-yl)phenyl)-1-(1H-pyrrol-3-yl)methanimine]	> 10	> 100	
C(=N\c1ccc(-c2nc3ccccc3s2)cc1)/c1cccs1 [Compound 1q, (E)-N-(4-(Benzo[d]thiazol-2-yl)phenyl)-1-(thiophen-2-yl)methanimine]	6.52 ± 1.14	> 100	inhibitory activity against MERS-S pseudovirus (in words) (MERS-S pseudovirus): modest inhibitory capacity
O=[N+]([O-])c1cc(/C=N/c2ccc(-c3nc4ccccc4s3)cc2)cs1 [Compound 1r, (E)-N-(4-(Benzo[d]thiazol-2-yl)phenyl)-1-(5-nitrothiophen-3-yl)methanimine]	0.62 ± 0.31	> 100	
C(=N\c1ccc(-c2nc3ccccc3s2)cc1)/c1cscn1 [Compound 1s, (E)-N-(4-(Benzo[d]thiazol-2-yl)phenyl)-1-(thiazol-4-yl)methanimine]	> 10	> 100	
C(=N\c1ccc(-c2nc3ccccc3s2)cc1)/c1cncs1 [Compound 1t, (E)-N-(4-(Benzo[d]thiazol-2-yl)phenyl)-1-(thiazol-5-yl)methanimine]	8.8 ± 0.01	> 100	

Compound	IC50 (MERS-S pseudovirus; Huh-7, 48 h) [µM]	CC50 (in vitro) [µM]	also measured
C(=N\c1ccc(-c2nc3ccccc3s2)cc1)/c1nccs1 [Compound 1u, (E)-N-(4-(Benzo[d]thiazol-2-yl)phenyl)-1-(thiazol-2-yl)methanimine]	> 10	> 100	
C(=N\c1ccc(-c2nc3ncccc3s2)cc1)/c1ccsc1 [Compound 4a, (E)-N-(4-(Thiazolo[4,5-b]pyridin-2-yl)phenyl)-1-(thiophen-3-yl)methanimine]	> 10		
C(=N\c1ccc(-c2nc3c(s2)CCCC3)cc1)/c1ccsc1 [Compound 4b, (E)-N-(4-(4,5,6,7-Tetrahydrobenzo[d]thiazol-2-yl)phenyl)-1-(thiophen-3-yl) methanimine]	> 10		
C(=N\c1ccc(-c2cn3c(n2)sc2ccccc23)cc1)/c1ccsc1 [Compound 4c, (E)-N-(4-(Benzo[d]imidazo[2,1-b]thiazol-2-yl)phenyl)-1-(thiophen-3-yl) methanimine]	> 10		
C(=N\c1ccc(-c2cn3ccccc3n2)cc1)/c1ccsc1 [Compound 4d, (E)-N-(4-(Imidazo[1,2-a]pyridin-2-yl)phenyl)-1-(thiophen-3-yl)methanimine]	> 10		
Fc1cccc2nc(-c3ccc(/N=C/c4ccsc4)cc3)sc12 [Compound 4e, (E)-N-(4-(7-Fluorobenzo[d]thiazol-2-yl)phenyl)-1-(thiophen-3-yl)methanimine]	1.67 ± 0.3		
Fc1ccc2nc(-c3ccc(/N=C/c4ccsc4)cc3)sc2c1 [Compound 4f, (E)-N-(4-(6-Fluorobenzo[d]thiazol-2-yl)phenyl)-1-(thiophen-3-yl)methanimine]	0.09 ± 0.01		
Fc1ccc2sc(-c3ccc(/N=C/c4ccsc4)cc3)nc2c1 [Compound 4g, (E)-N-(4-(5-Fluorobenzo[d]thiazol-2-yl)phenyl)-1-(thiophen-3-yl)methanimine]	1 ± 0.07		
Fc1cccc2sc(-c3ccc(/N=C/c4ccsc4)cc3)nc12 [Compound 4h, (E)-N-(4-(4-Fluorobenzo[d]thiazol-2-yl)phenyl)-1-(thiophen-3-yl)methanimine]	0.53 ± 0.02		
CCOc1ccc2nc(-c3ccc(/N=C/c4ccsc4)cc3)sc2c1 [Compound 4i, (E)-N-(4-(6-Ethoxybenzo[d]thiazol-2-yl)phenyl)-1-(thiophen-3-yl)methanimine]	> 10		
Cc1ccc2nc(-c3ccc(/N=C/c4ccsc4)cc3)sc2c1 [Compound 4j, (E)-N-(4-(6-Methylbenzo[d]thiazol-2-yl)phenyl)-1-(thiophen-3-yl)methanimine]	> 10		
CNc1ccc2nc(-c3ccc(/N=C/c4ccsc4)cc3)sc2c1 [Compound 4k, (E)-N-Methyl-2-(4-((thiophen-3-ylmethylene)amino)phenyl)benzo[d]thiazol-6-amine]	> 10		
CN(C)c1ccc2nc(-c3ccc(/N=C/c4ccsc4)cc3)sc2c1 [Compound 4l, (E)-N,N-Dimethyl-2-(4-((thiophen-3-ylmethylene)amino)phenyl)benzo[d]thiazol-6-amine]	> 10		
O=C(O)c1ccc2nc(-c3ccc(/N=C/c4ccsc4)cc3)sc2c1 [Compound 4m, (E)-2-(4-((Thiophen-3-ylmethylene)amino)phenyl)benzo[d]thiazole-6-carboxylic acid]	> 10		
CNC(=O)c1ccc2nc(-c3ccc(/N=C/c4ccsc4)cc3)sc2c1 [Compound 4n, (E)-N-Methyl-2-(4-((thiophen-3-ylmethylene)amino)phenyl)benzo[d]thiazole-6-carboxamide]	> 10		
C(=N\c1ccc(Oc2nc3ccccc3s2)cc1)/c1ccsc1 [Compound 4o, (E)-N-(4-(Benzo[d]thiazol-2-yloxy)phenyl)-1-(thiophen-3-yl)methanimine]	> 10		inhibitory activity against MERS-S pseudovirus (in words) (MERS-S pseudovirus): inhibitory activity was abolished
C(=N\c1ccc(Sc2nc3ccccc3s2)cc1)/c1ccsc1 [Compound 4p, (E)-N-(4-(Benzo[d]thiazol-2-ylthio)phenyl)-1-(thiophen-3-yl)methanimine]	> 10		inhibitory activity against MERS-S pseudovirus (in words) (MERS-S pseudovirus): inhibitory activity was abolished
(E)-N-(4-(Benzo[d]thiazol-2-yl)phenyl)-1-(3-methoxyphenyl)methanimine [Compound 1j]			IC50 (MERS-S pseudovirus): 0.2 ± 0.05 µM; CC50 (Huh-7 cells): > 100 µM
